# “Also recorded” adds a separate entry of the source. No end group written: not given here. *: point of attachment. DOTA = O=C(O)CN1CCN(CC(=O)O)CCN(CC(=O)*)CCN(CC(=O)O)CC1; PEG2000 = polyethylene glycol, 2000 Da; Myristoyl = CCCCCCCCCCCCCC(=O)*
# Legend:
# [1] = tested on: L3.6p1 pancreatic carcinoma cells; assay: Human orthotopic model, L3.6p1 cells in the pancreas of nude mice; type: in vivo, mouse; details: for outgrowth / size of the primary tumor: 20 μg per injection i.p. three times per week for three weeks; for outgrowth / size of the primary tumor / metastasis formation (liver): start one week after implantation; for metastasis formation (liver): 20 μg per injection i.p. three times per week
# Procedure: In the case of the human orthotopic model, L3.6p1 pancreatic carcinoma cells (passage 24-26) were suspended in Hank's balanced salt solution (Invitrogen, Karlsruhe, Germany) after trypsinization. The cells were injected orthotopically in the pancreas of male nude mice as described (Bruns C J et al. (1999) Neoplasia 1(1):50-62). Two groups of 15 mice each were injected i.p. 7 days later with either the human v6 peptide respectively rat control peptide (20 μg). For all experiments described and depicted herein either the rat 14mer control peptide or the human 14mer peptide were used. All experiments were then repeated with the rat 5mer control peptide or the human 5mer peptide (N-R-W-H-E, SEQ ID NO: 2). […] The injection was repeated three times per week for 21 days. Two days after the last treatment the animals were killed.
# (§1) 7 μm thick paraffin sections were deparaffinized and rehydrated. For P-Met staining antigen unmasking was achieved by boiling the slides in 1 mM EDTA pH 8.0 followed by incubation for 15 minutes at a sub-boiling temperature, for CD31 staining the sections were treated with Proteinase K (8 μg/ml) for 10 min at 37° C. For immunofluorescence staining of P-Met, unspecific binding was blocked with 5% goat serum (DAKO, Glostrup, Denmark) (diluted in 1×PBS/0.3% Triton X-100) for 60 minutes. In the case of immunohistochemistry, endogenous peroxidases were at first blocked with 3% H2O2 in PBS followed by incubation with biotin blocking system (Dako, Glostrup, Denmark) and then unspecific binding was inhibited by incubation with 5% FCS in PBS. The sections were incubated with the P-Met antibody (D26, dilution 1:50 in 1×PBS/1% BSA/0.3% Triton X-100), Met antibody (C-28, dilution 1:50), GFP antibody (sc-101525, dilution 1:50) or antibody (5 μg/ml) over night or VFF18 (5 μg/ml) o/n at 4° C. After washing in PBS the sections were incubated with Alexa Fluor R 546 goat anti-rabbit (in case of immunofluorescence P-Met and Met staining, dilution 1:500) or a biotinylated secondary antibody (for immunohistochemical stainings rabbit anti-rat antibody for VFF18 and CD31, goat anti-rabbit for P-Met, cleaved Caspase-3 and cleaved Caspase-8 and rabbit anti-mouse for GFP, dilution 1:500) for 45 minutes. For DAB (3,3′-diaminobenzidine) staining the sections were treated with a streptavidin-peroxidase conjugate (Dako, Glostrup, Denmark) and developed with DAB substrate system (3,3′-diaminobenzidine; Biozol, Eching, Germany) For immunofluorescence DAPI was used for nuclear staining.
# The three CD44v6 specific compounds (v6 5mer, PEG840-v6 5mer and PEG2000-v6 5mer of human origin) and a control peptide were applied in three concentrations (2 μg, 20 μg, 200 μg per injection) three times per week i.p. for 4 weeks. One week before start of the treatment the L3.6p1 tumor cells were orthotopically implanted into nude mice.
# Animals were implanted orthotopically with L3.6p1 cells. Tumor growth was allowed for one week before the treatment with the linear v6 14mer, the cyclic v6 8mer as well as the control peptide (rat v6 14mer) was started. All peptides were injected three times per week at a concentration of 0.2, 2 and 10 μg per injection for 3 weeks. At the end of the treatment animals were sacrificed.
# A comparison of different CD44v6 peptide derivatives was performed in animals bearing a orthotopic L3.6p1 tumor. 10 groups of 5 animals each received a dose of 20 μg peptide per injection three times per week for 3 weeks with the compounds listed in Table 4. Three weeks after starting the treatment the animals were sacrificed and analyzed for macroscopic metastases and tumor volume.
# [2] = tested on: BSp73ASs6 lung metastases; assay: Apoptosis in established lung metastases (cleaved Caspase-3 and Caspase-8 staining); type: in vivo, rat; details: for apoptotic cells in lung metastases (cleaved Caspase 3): injection every second day from three weeks after cell injection
# Procedure: as §1
# One hypothesis for the disappearance of metastases is that the peptides induce apoptosis of CD44v6-expressing metastatic cells in the secondary organs. In order to test this hypothesis, the experiment described above using the BSp73ASs6 cells was repeated. The cells were injected subcutaneously in syngeneic rats and the tumor was allowed to develop for three weeks. After that time the animals were separated in two groups of 10 animals that were injected either with the specific rat CD44v6 peptide or with the control peptide (mouse) every second day. One day following each injection of the peptide, the lungs of one animal were removed and apoptosis was measured using an antibody that detects the cleaved form of Caspase 3. […] From these experiments, it is concluded that the CD44v6 peptide induces apoptosis of metastatic cells.
# To discriminate whether the intrinsic pathway characterized by the release of mitochondrial proteins or the extrinsic pathway activated by ligand-bound death receptors for apoptosis was induced by the v6 peptide the expression of cleaved caspase-8 in the metastases treated with the v6 peptide was investigated. […] From these experiments we conclude that the CD44v6 peptide induces apoptosis of metastatic cells via the extrinsic apoptotic pathway.
# [3] = tested on: BSp73ASs6 cells; assay: Rat syngeneic model, subcutaneous BSp73ASs6 tumors, metastasis formation; type: in vivo; details: 200 μg per injection three times a week; for outgrowth of primary tumors: 28 days; for metastasis (axillary lymph nodes and lungs): intra-tumoral or intravenously, start one week after cell injection
# Procedure: In the case of the rat syngeneic model, 1×10^6 pancreatic cells (BSp73AS and its transfectants) were subcutaneously injected into the right posterior flank of the animals. Tumors developed for four weeks. During this time period animals injected with BSp73ASs6 cells expressing Met-shRNA or control-shRNA received doxycycline in the drinking water. At the end of the experiment, primary tumors were isolated. Lungs and axillary lymph nodes were analyzed. The tissues were incubated for 24 h in a zinc-fixative (0.5 g calcium acetate, 5.0 g zinc acetate, 5.0 g zinc chloride, in 1 L 0.1 M Tris pH 7.4) and embedded in paraffin for further analysis. In case of peptide or antibody treatment tumors developed for one week before the first treatment. Where indicated, animals received 200 μg of peptide or antibody per injection three times per week for four weeks. Tumor growth was monitored weekly using a caliper Animals were killed at day 28 or 30 after start of the treatment.
# For histomorphological analysis paraffin-embedded sections of lungs were stained with hematoxylin and eosin and periodic acid-Schiff (H&E or PAS). Serial sections of the whole tissue blocks were examined by analyzing slices every 20 μm; in each slice, the presence and the extension of the metastatic deposit was assessed, according to the procedure routinely used by pathologists to evaluate the presence of micrometastases.
# Rat peptides had the sequences KEKWFENEWQGKNP (SEQ ID NO: 10) and NEWQG (SEQ ID NO: 11). BSp73ASs6 cells were subcutaneously injected into syngeneic rats and rat CD44v6 peptides of SEQ ID NO: 10 or SEQ ID NO: 11 (or mouse control peptides) or the CD44v6 antibody (or IgGs as a control) were injected intra-tumoral or intravenously three times a week. […] This is compatible with the fact that also BSp73AS cells or BSp73ASv1-10Δv6 cells can induce the formation of primary tumors similarly to the v6 transfectants.
# [4] = tested on: Met activation and downstream signaling to ERK; assay: HGF-induced activation of Met and ERK in L3.6p1 cells (western blot); type: cell-based, human; details: HGF 10 ng/ml
# Procedure: Serum-starved cells (24 hours) were induced with the growth factor HGF (10 ng/mL) at 37° C. for 5 minutes. Where indicated, the cells were treated with peptides (100 ng/ml) prior to induction at 37° C. for 10 minutes (100 ng/mL CD44v6 peptide or control peptide). Following the induction with HGF, cells were washed with ice-cold phosphate-buffered saline (PBS). To detect activated Met and Erk, cells were lysed in sodium dodecyl sulfate (SDS)-sample buffer containing 100 mM dithiothreitol (DTT), boiled and subjected to western blot analysis using antibodies against phospho-Met and ERK. The loading controls were performed on the same blot after stripping (62.5 mM Tris, pH 6.8, 2% SDS, 0.8% DTT) by probing with the Met respectively ERK antibody. Blots were stained using the enhanced chemiluminescence system (Thermo Fisher Scientific, Schwerte, Germany). Bands in western blot analysis were quantified with the program Image J (National Institutes of Health).
# To expand the studies to human pancreatic tumors, the highly metastatic human pancreatic carcinoma cells L3.6p1 (Bruns, et al. Neoplasia (1999), 1(1):50-62) were investigated. These cells originate from the […] cells that have been passaged several times in the liver and the pancreas, a step that rendered them more and more metastatic. It was confirmed that Met is dependent on CD44v6 for its activation and signaling in these cells (FIG. 4A). The L3.6p1 cells were treated with HGF in the presence or absence of a human v6 peptide of SEQ ID NO: 2 or SEQ ID NO:6 and Met activation and downstream signaling to ERK was measured.
# [5] = listed as rat-specific peptide (ctrl peptide)
substance,measurement,setting,value
DOTA-cy[KRWHE] [cycl 5 mer],outgrowth / size of the primary tumor,[1],strongest reduction of tumor size
same,metastasis formation (liver),[1],complete inhibition of metastasis
DOTA-keqwfGNRWHEGyr [DOTA CD44v6-14 [daa7]],metastasis formation (liver),[1],decrease of metastatic spreading
"KEKWFENEWQGKNP [rat 14mer, rat CD44v6 14mer peptide; control in human systems]",apoptosis twelve days after injection,[2]; cleaved Caspase 3,less apoptosis was observed
same,time of maximum of apoptosis,"[2]; cleaved Caspase 3, injection every second day",eight days after the first injection
same,cleaved caspase-8 in lung metastases,[2]; injection every second day,kinetic of activation of caspase-8 similar to the one obtained for caspase-3
same,lung metastasis at day twenty-two,[2]; injection every second day,no metastasis could be detected anymore
same,apoptotic cells in lung metastases (cleaved Caspase 3),[2],detected as early as three days after the first injection
same,metastasis and micro-metastasis in lung sections (PAS and H&E staining),[3],neither metastasis nor micro-metastasis could be detected
same,outgrowth of primary tumors,[3],not influenced by either treatment
same,metastasis (axillary lymph nodes and lungs),[3],completely inhibited metastasis
same,inhibition of HGF-induced activation (phosphorylation) of Met and ERK,[4],had no influence on receptor activation and signal transduction
same,outgrowth / size of the primary tumor,[1]; [5],had no influence on metastasis formation or on growth of the primary tumor
same,metastasis formation (liver),[1]; [5],neither any influence on metastasis formation; also recorded: had no influence on metastasis formation or on growth of the primary tumor
Myr-KEQWFGNRWHEGYR (Myristoyl-KEQWFGNRWHEGYR) [Myristoyl-14-mer],outgrowth / size of the primary tumor,[1],no inhibitory effect on tumor growth
"Myr-Y-cy[KGNRWHEG] (Myristoyl-YKGNRWHEG; also: cyclic, closure not given here, Myr-Tyr attached, site not given here) [Myr-Y-cycl 8 mer]",outgrowth / size of the primary tumor,[1],significant reduction in tumor growth
same,metastasis formation (liver),[1],decrease of metastatic spreading
"NEWQG [rat 5mer, rat CD44v6 5mer peptide]",metastasis and micro-metastasis in lung sections (PAS and H&E staining),[3],neither metastasis nor micro-metastasis could be detected
same,outgrowth of primary tumors,[3],not influenced by either treatment
same,metastasis (axillary lymph nodes and lungs),[3],completely inhibited metastasis
same,inhibition of HGF-induced activation (phosphorylation) of Met and ERK,[4],had no influence on receptor activation and signal transduction
same,results in the human orthotopic model compared with the 14mer peptides,[1]; 20 μg i.p. three times per week for 21 days,same results as for the 14mer peptides were observed
"NRWHE [human 5mer, NRWHE]",side effects in the animals,[1]; 200 μg per injection i.p. three times per week for 4 weeks,did not lead to side effects
PEG840-KEQWFGNRWHEGYR-OH [PEG840 14-mer],outgrowth / size of the primary tumor,[1],significant reduction in tumor growth
same,metastasis formation (liver),[1],decrease of metastatic spreading
PEG2000-KEQWFGNRWHEGYR-OH [PEG2000 14-mer],outgrowth / size of the primary tumor,[1],strongest reduction of tumor size
same,outgrowth / size of the primary tumor,[1]; listed as PEGylated 14mer (PEG 2000),significant reduction in tumor growth
same,metastasis formation (liver),[1],decrease of metastatic spreading
mouse control peptides: mouse CD44v6 peptide used as control in the rat system (WFQNGWQGKNP) [reference compound],lung metastasis at day twenty-two,[2]; injection every second day,metastatic spreading was evident in the lungs
same,apoptotic cells in lung metastases (cleaved Caspase 3),[2],No apoptosis at all was detected
same,metastasis (axillary lymph nodes and lungs),[3],numerous metastases were detected in the lungs
{DOTA}-KEQWFGNRWHEGYR [DOTA CD44v6-14 [r^14]],metastasis formation (liver),[1],complete inhibition of metastasis
